pIC50: −log10 of the molar value.

Test [1] concerns the target T1, Mitogen-activated protein kinase 1 (Homo sapiens, UniProt P28482). Put plainly: Inhibition of recombinant ERK2.
The target of test [2] is T1, Mitogen-activated protein kinase 1. Put plainly: Inhibition of recombinant ERK2 at 100 uM.
Test [3] has as its target Mitogen-activated protein kinase 14 (Homo sapiens) (UniProt Q16539). In words: Inhibition of p38-alpha at 100 uM.

T1 sequence (P28482 whole entry): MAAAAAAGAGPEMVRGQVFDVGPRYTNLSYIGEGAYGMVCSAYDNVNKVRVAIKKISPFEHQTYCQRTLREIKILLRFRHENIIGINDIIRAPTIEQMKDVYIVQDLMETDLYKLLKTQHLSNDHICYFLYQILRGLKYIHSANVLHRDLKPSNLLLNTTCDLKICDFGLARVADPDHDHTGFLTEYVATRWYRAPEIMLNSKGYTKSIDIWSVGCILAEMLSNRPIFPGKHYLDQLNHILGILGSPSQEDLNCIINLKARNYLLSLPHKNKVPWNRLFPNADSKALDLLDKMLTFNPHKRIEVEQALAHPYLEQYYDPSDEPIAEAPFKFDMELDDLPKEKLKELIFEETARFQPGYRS
Mitogen-activated protein kinase 14 (Homo sapiens), sequence (Q16539 whole entry): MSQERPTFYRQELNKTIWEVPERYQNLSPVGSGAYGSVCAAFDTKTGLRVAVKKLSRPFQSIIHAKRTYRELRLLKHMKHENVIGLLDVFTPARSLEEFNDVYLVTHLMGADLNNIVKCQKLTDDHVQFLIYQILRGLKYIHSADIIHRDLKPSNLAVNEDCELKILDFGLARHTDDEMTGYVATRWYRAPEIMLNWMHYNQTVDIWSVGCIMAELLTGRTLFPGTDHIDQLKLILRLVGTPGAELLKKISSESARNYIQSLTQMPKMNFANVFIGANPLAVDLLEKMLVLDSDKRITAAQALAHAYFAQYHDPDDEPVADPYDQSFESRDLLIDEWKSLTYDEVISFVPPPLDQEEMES

In the case of `O=C(/C=C/c1ccccc1)Nc1nc(NC(=O)c2ccccc2)nn1-c1ccccc1`, the pIC50 (as a rule, −log10 of the IC50, conventionally taken in molar units) in test [1] was 4.59.
The same measure, in the same setting: to `O=C(Nc1nc(NC(=O)c2ccco2)n(-c2ccccc2)n1)c1ccccc1` belongs 4.74.
Same read-out and setting: to `COc1ccccc1-c1c[nH]nc1-c1ccc(OCc2ccccc2F)cc1O` belongs 4.56.
As to `O=C(Nc1nc(NC(=O)c2ccccc2)n(-c2ccccc2)n1)c1ccccc1`, the inhibition – broadly, the share of the control response that was lost under treatment – in test [2] came out at 93.1%; in test [3], 24.5%. Also, the pIC50 in test [1] was 5.08.
In the case of `COc1cc(/C=C2\SC(=S)N(Cc3ccccc3)C2=O)ccc1O`, the pIC50 in test [1] was 4.84.
For the molecule `O=C1/C(=C/C=C/c2ccccc2)SC(=S)N1Cc1ccc2c(c1)OCO2`, in test [1], the pIC50 is 4.63.
Take `O=C1/C(=C/c2ccc(O)cc2)SC(=S)N1Cc1ccccc1`: the inhibition in test [2] was 92.7%; in test [3] it was 16.7%. In test [1], the pIC50 is 5.26.
The corresponding values for `Cc1ccc(COc2ccc(-c3n[nH]cc3-c3ccccc3)c(O)c2)cc1` are 87.9%, 12.3% and 4.77.

These data come from ChEMBL document CHEMBL1152247, “Identification of novel inhibitors of extracellular signal-regulated kinase 2 based on the structure-based virtual screening” (Bioorg Med Chem Lett, 2008).
